Measured values taken from patent publication US20040082550A1, “Tropolone derivative” (priority 2000, published 2004).

Tested on: promyelocyte leukemia cell strain HL-60
Experiment: Test for induction of cell differentiation in HL-60 cells (NBT reduction ability)
Type: cell-based
Conditions: for Ratio of cells for which differentiation was induced by each compound alone (%): calculated from NBT reduction ability; for Ratio of cells for which differentiation was induced by each compound in combination with 1 × 10^−7 M of HX630 (%): in combination with 1×10^−7 M HX630 (retinoid synergist)
Protocol: For each of the compounds of the examples, action for inducing cell differentiation was examined for each alone and in combination with 1×10^−7 M of HX630. According to the methods described in Japanese Patent Unexamined Publication (KOKAI) No. (Sho)61-76440/1986, differentiation of the cells of promyelocyte leukemia cell strain HL-60 into granulocytic series cells was determined based on morphological change and measurement of ability to reduce nitro blue tetrazolium (NBT). The ratios (%) of differentiated cells shown in the following table are those calculated from NBT reduction ability. HX630 is a retinoid synergist that enhances actions of retinoids, and the concentrations of −8, −7 and −6 mean that each compound was added at concentrations of 1×10^−8 M, 1×10^−7 M and 1×10^−6 M, respectively.

[1] = compound concentration -6 (1×10^−6 M)
[2] = compound concentration -7 (1×10^−7 M)
[3] = compound concentration -8 (1×10^−8 M)

Row | Structure (SMILES) | Ratio of cells for which differentiation was induced by each compound alone (%) (concentration -6 (1×10^−6 M)) | Ratio of cells for which differentiation was induced by each compound alone (%) (concentration -7 (1×10^−7 M)) | Ratio of cells for which differentiation was induced by each compound alone (%) (concentration -8 (1×10^−8 M)) | Ratio of cells for which differentiation was induced by each compound in combination with 1 × 10^−7 M of HX630 (%) [1] [%] | Ratio of cells for which differentiation was induced by each compound in combination with 1 × 10^−7 M of HX630 (%) [2] [%] | Ratio of cells for which differentiation was induced by each compound in combination with 1 × 10^−7 M of HX630 (%) [3] [%]
1 | CC1(C)CCC(C)(C)c2cc(Nc3ccc(O)c(=O)cc3)ccc21 [Tp10] | 3.3 | 2.9 | 6.8 | 5.6 | 2.9 | 3
2 | CC(C)(C)c1cc(C(=O)Nc2ccc(O)c(=O)cc2)cc(C(C)(C)C)c1 [Tp50] | 5.1 | 2.8 | 1.6 | – | – | –
3 | CC1(C)CCC(C)(C)c2cc3sc(-c4ccc(O)c(=O)cc4)cc3cc21 [Tp260] | 55 | 20 | 10 | 67 | 83 | 91
4 | Cc1cc2c(cc1C(=O)Nc1ccc(O)c(=O)cc1)C(C)(C)CCC2(C)C [Tp84] | 26 | 5 | 0.7 | 90 | 89 | 15
5 | CC1(C)CCC(C)(C)c2cc(C(=O)Nc3ccc(O)c(=O)cc3)ccc21 [Tp80] | 21 | 26 | 7 | 79 | 85 | 82
6 | Cc1cc2c(cc1Nc1ccc(O)c(=O)cc1)C(C)(C)CCC2(C)C [Tp20] | 2.7 | 1.8 | 2.1 | 2.4 | 3.7 | 4.6
7 | CC1(C)CCC(C)(C)c2cc(C#Cc3cccc(=O)cc3)ccc21 [Tp149] | 40 | 4 | 1.4 | 40 | 85 | 3.5
8 | CC1(C)CCC(C)(C)c2cc(C=CC(=O)Nc3ccc(O)c(=O)cc3)ccc21 [Tp90] | 67 | 0.9 | 0.7 | 43 | 2.1 | 1.5
9 | CC1(C)CCC(C)(C)c2cc(-c3ccc(-c4ccc(O)c(=O)cc4)o3)ccc21 [Tp200] | 36 | 14 | 2 | 50 | 95 | 77
10 | CC(C)(C)c1cc(C#Cc2ccc(O)c(=O)cc2)cc(C(C)(C)C)c1 [Tp155] | 62.5 | 24 | 2.7 | 78 | 89 | 68
11 | Cc1cc2c(cc1C#Cc1ccc(O)c(=O)cc1)C(C)(C)CCC2(C)C [Tp145] | 70 | 76 | 73 | 77 | 75 | 82
12 | CC1(C)CCC(C)(C)c2cc(-c3ccc(-c4ccc(O)c(=O)cc4)s3)ccc21 [Tp210] | 11 | 6 | 0.8 | 91 | 91 | 64
13 | CC1(C)CCC(C)(C)c2cc3cc(-c4ccc(O)c(=O)cc4)ccc3cc21 [Tp250] | 56 | 66 | 63 | 79 | 84 | 91
14 | CC1(C)CCC(C)(C)c2cc(C=CC(=O)Nc3ccc(Cl)c(=O)cc3)ccc21 [Tp93] | 9 | 0.8 | 0.6 | 40 | 0.8 | 3.6
15 | CN(C(=O)c1ccc2c(c1)C(C)(C)CCC2(C)C)c1ccc(O)c(=O)cc1 [Tp82] | 1.4 | 1.2 | 0.5 | 42 | 7 | 1.9
16 | COc1ccc(C#Cc2ccc3c(c2)C(C)(C)CCC3(C)C)ccc1=O [Tp141] | 6.4 | 3.3 | 2.2 | 84 | 7 | 4.1
17 | CC1(C)CCC(C)(C)c2cc(C#Cc3ccc(NN)c(=O)cc3)ccc21 [Tp146] | 69 | 2.2 | 3.6 | 83 | 91 | 66
18 | CC1(C)CCC(C)(C)c2cc(N=Nc3ccc(O)c(=O)cc3)ccc21 [Tp160] | 32 | 34.4 | 18.5 | 90 | 84 | 81
19 | O=C(Nc1ccc(O)c(=O)cc1)c1cc(C(F)(F)F)cc(C(F)(F)F)c1 [Tp60] | 2.1 | 1.3 | 0.8 | 37.8 | 21.2 | 2.2
20 | Cc1cc2c(cc1N(C)c1ccc(O)c(=O)cc1)C(C)(C)CCC2(C)C [Tp22] | 18 | 2.4 | 2.8 | 78 | 3.3 | 2.1
